Source: EP0635494A1, “2-(Imidazol-1-yl)2-benzylethylidene-aminooxyalkyl-hydroxamic acid derivatives” (PHARMACIA S.p.A., priority 1993, dated 1995)

What was measured:
[1] = molecular target: T1, TxA₂ receptor (Homo sapiens, UniProt P21731); assay: [³H]-SQ 29,548 binding displacement in washed human platelets (TxA₂ antagonism); conditions: result in words, compared with Sulotroban (BM 13177)
T1 construct: endogenous in cells; host or cells: washed human platelets from healthy volunteers
T1 sequence (P21731 1-343): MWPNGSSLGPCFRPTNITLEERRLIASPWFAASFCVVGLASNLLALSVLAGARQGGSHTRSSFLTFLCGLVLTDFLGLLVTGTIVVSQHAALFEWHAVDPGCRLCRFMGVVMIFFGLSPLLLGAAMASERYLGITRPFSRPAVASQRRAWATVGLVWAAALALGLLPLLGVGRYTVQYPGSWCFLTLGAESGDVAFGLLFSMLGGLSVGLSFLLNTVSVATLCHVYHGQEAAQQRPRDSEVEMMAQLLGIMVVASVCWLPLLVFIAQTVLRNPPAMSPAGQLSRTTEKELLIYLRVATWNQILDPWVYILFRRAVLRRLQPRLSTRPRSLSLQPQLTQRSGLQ
Experimental: The experiments were carried out as follows: Blood from healthy volunteers of both sexes who had not taken any medication for at least 10 days was collected into one-tenth volume of acid citrate dextrose containing indomethacin (28 µM). Platelet rich plasma (PRP), obtained by centrifugation of the blood at 200 x g for 20 min, was washed twice (1000 x g for 10 min). The platelets were then resuspended in Tyrode-Hepes buffer (pH 7.4) to a final concentration of 5-10x10⁻⁸ cells/ml and incubated for 0-60 min at 25°C with [³H]-SQ 29,548 (5 nM). For displacement experiments various concentrations (10⁻⁹ -10⁻⁴M) of competing ligands were added and incubated for 30 min at 25°C.
Non-specific binding was determined in the presence of 50 µM U46619 and was approximately 5% of total binding of [³H]-SQ 29,548. After incubation, 4 ml of ice-cold TRIS-HCl buffer (10 mM, pH 7.4) was added to each tube and the reaction mixture was immediately filtered by suction through a Whatman GE/C glass filter disc which was washed 2 times with ice-cold TRIS-HCl (4 ml) and counted for radioactivity by a Packard-β-counter.
The binding data were analyzed by computerized non-linear curve fitting using the Ligand program and expressed as IC₅₀.

[2] = molecular target: T2, TxA₂ Synthase (Rattus norvegicus, UniProt P49430); assay: In vitro effects on TxB₂ production in rat whole blood during clotting (TxA₂ synthesis, RIA); format: cell-based; conditions: result in words, compared with reference compound Dazoxiben
T2 construct: Blood was withdrawn from the abdominal aorta of the animals under light ether anesthesia; from tissue; host or cells: rat whole blood (clotting, serum TxB₂ by RIA)
T2 sequence (P49430 1-533): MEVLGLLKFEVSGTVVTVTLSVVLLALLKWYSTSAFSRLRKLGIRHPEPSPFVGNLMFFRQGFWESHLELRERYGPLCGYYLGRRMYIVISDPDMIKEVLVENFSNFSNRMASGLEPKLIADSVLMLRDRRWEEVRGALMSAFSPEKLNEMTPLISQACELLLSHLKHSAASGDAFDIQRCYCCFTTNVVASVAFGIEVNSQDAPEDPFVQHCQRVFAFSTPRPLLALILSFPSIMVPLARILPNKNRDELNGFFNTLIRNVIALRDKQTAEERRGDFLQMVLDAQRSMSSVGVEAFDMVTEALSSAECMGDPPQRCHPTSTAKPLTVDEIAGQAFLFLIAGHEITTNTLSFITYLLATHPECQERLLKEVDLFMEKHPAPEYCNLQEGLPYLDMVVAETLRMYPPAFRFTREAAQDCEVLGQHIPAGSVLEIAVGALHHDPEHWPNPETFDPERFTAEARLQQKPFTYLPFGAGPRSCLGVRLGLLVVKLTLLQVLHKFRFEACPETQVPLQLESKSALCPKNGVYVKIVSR
Experimental: The compounds of formula (I) were for example tested for their ability to inhibit TxA₂ Synthase activity (as reflected by TxB₂ generated in whole blood during clotting or in isolated glomeruli) in vitro in the rat. The in vitro experiments were carried out as follows: The effect of the compounds on TxA₂ synthesis was evaluated in serum.
Blood was withdrawn from the abdominal aorta of the animals under light ether anesthesia.
Samples were then allowed to clot for 1 h at 37°C, centrifuged at 3000 rpm for 10 min, serum collected and stored at -20°C until assayed. TxB₂ levels were determined by RIA according to previously described procedures [Patrono et al. - Thromb.

[3] = molecular target: T2, TxA₂ Synthase; conditions: statement on the known compound, no data shown; cited from earlier work

Row | Molecule | affinity for the receptor [1] | inhibitory activity on TxA₂ synthesis [2] | TxA₂ synthase inhibitory activity [3]
1 | (±)-(E)-5-[2-benzyl-2-(imidazol-1-yl)-1-cyclohexylethylidene]-aminooxybutanohydroxamic acid [FCE 27790] | good affinity for the receptor which is better than that shown by the known compound Sulotroban (BM 13177) | marked inhibitory activity on TxA₂ synthesis significantly more potent than that of reference compound Dazoxiben | 
2 | O=C(O)COc1ccc(CCNS(=O)(=O)c2ccccc2)cc1 [BM 13177, Sulotroban] |  |  | devoid of TxA₂ synthase inhibitory activity
3 | Cc1ccc(CC(/C(=N/OCCCCC(=O)O)C2CCCCC2)n2ccnc2)cc1 (racemic) [FCE 27818, (±)-(E)-5-[2-(4-methylbenzyl)-2-(imidazol-1-yl)-1-cyclohexylethylidene]aminooxypentanoic acid] | good affinity for the receptor which is better than that shown by the known compound Sulotroban (BM 13177) | marked inhibitory activity on TxA₂ synthesis significantly more potent than that of reference compound Dazoxiben | 
